Patent publication US4044132A, “Substituted piperazine derivative, its preparation and anorexia compositions containing it” (Synthelabo, priority 1975, dated 1977)
Where two headings read alike, the source gives them in different places.

Columns and labels:
rats [1] = assay: Anorexia-inducing action, food consumption of male Charles River rats, 1 hour and 6 hours after administration; assay type: in vivo; details: Rattus norvegicus, oral
Description: (§1) The experiment was carried out by administering each compound orally at several doses to batches of 8 animals per dose, 1 hour before the distribution of the food, and graphically determining the 50% active doses (AD 50 = dose capable of reducing the food consumption by 50%).
The AD 50 (i.e. the dose which reduces food consumption by 50% compared with untreated controls) was also determined, in the same way as that described above, on male `Charles River` rats, 1 hour and 6 hours after administration of the compounds under test.

[2] = Acute toxicity (50% lethal dose, determined graphically); assay type: in vivo, mice (CDl); details: mouse, in vivo, CDl mice
Description: (§2) Acute toxicity: the experiments were carried out on CDl mice of average weight 20 g. The 50% lethal dose (LD 50) was determined graphically.

rats [3] = assay: Anorexia-inducing action, food consumption of female SJ (Janvier) rats; assay type: in vivo; details: for ED50: Rattus norvegicus, female SJ (Janvier) rats, oral, 1 hour before distribution of food
Description: as §1

CD1 mice = assay: Conventional actimetry test (motility); assay type: in vivo
CDl mice = assay: Acute toxicity (50% lethal dose, determined graphically); assay type: in vivo
Description: as §2

[4] = after 1 hour, read-out: Anorexia-inducing Action AD 50 orally after 1 hour
[5] = after 6 hours, read-out: Anorexia-inducing Action AD 50 orally after 6 hours
[6] = intravenous, read-out: Acute toxicity LD 50, intravenous administration
[7] = oral, read-out: Acute toxicity LD 50, oral administration
[8] = 1st series, read-out: Anorexia-inducing action AD 50, administered orally, 1st series
[9] = 2nd series, read-out: Anorexia-inducing action AD 50, administered orally, 2nd series

| SMILES | ED50 (rats [1]; [4]) | ED50 (rats [1]; [5]) | LD50 [2, 6] | LD50 [2, 7] | ED50 (rats [3]; [8]) | ED50 (rats [3]; [9]) | motor activity at higher doses (CD1 mice; CD1 mice, 20 mg/kg) | motility at a low dose (CD1 mice; CD1 mice, up to 5 mg/kg) | stimulant effect (CD1 mice; overall conclusion) | toxicity (CDl mice; overall conclusion) | therapeutic index (CDl mice; overall conclusion from LD 50 and AD 50) | anorexia-inducing activity compared with the reference compounds (rats [3]; overall conclusion from Tables I and II) |
| --- | --- | --- | --- | --- | --- | --- | --- | --- | --- | --- | --- | --- |
| CCNC(C)Cc1cccc(C(F)(F)F)c1 (stereo not shown) [Fenfluramine, reference compound] | 1.4 mg/kg | 4 mg/kg | 42 mg/kg | 195 mg/kg | 5 mg/kg |  |  |  |  |  |  |  |
| Fc1ccc(N2CCNCC2)cc1C(F)(F)F [SLC-001, 1-(4-fluoro-3-trifluoromethyl-phenyl)-piperazine, reference compound] | 2 mg/kg | > 6 mg/kg | 59 mg/kg | 150 mg/kg |  | 2.2 mg/kg |  |  |  |  |  |  |
| Fc1ccc(N2CCNCC2)cc1SC(F)(F)F [SLC-298, 1-(4-fluoro-3-trifluoromethylthiophenyl)-piperazine] | 1.9 mg/kg | 2.7 mg/kg | 60 mg/kg | 150 mg/kg | 1.5 mg/kg | 1.8 mg/kg | reduces the motor activity | only very slightly increases the motility | little or no stimulant effect | moderate | high | more active as an anorexia-inducing agent than the reference compounds |
